Key:
[1] = Enthalpy-entropy compensation analysis; format: physicochemical; conditions: all {DMSO (1) + H2O (2)} mixes, neat DMSO and H2O, Thm = 308 K
Description: An enthalpy–entropy compensation analysis was used, as previously described, to evaluate the solvation behavior of ITN (3) in numerous mixes of {DMSO (1) + H2O (2)}. Weighted curves of ΔsolH° vs. ΔsolG° were generated at Thm = 308 K for this experiment.

[2] = set-up: method as in PMID 36431759; conditions: cited from earlier work
[3] = Shake flask solubility of ITN in {DMSO (1) + H2O (2)} mixes, HPLC; format: physicochemical; conditions: 101.1 kPa
Protocol: A series of {DMSO (1) + H2O (2)} solutions, with DMSO mass percentages ranging from 0.10 to 0.90, was examined. Three replicates of each {DMSO (1) + H2O (2)} combination were taken. ITN’s mole fraction solubility versus mass fraction of DMSO (m = 0.0–1.0) and neat DMSO and H2O was measured using a shake flask approach at 298.2–318.2 K and 101.1 kPa. In essence, the known amounts of each {DMSO (1) + H2O (2)} combination and neat DMSO and H2O were combined with extra ITN crystals in triplicate. The equilibrium was achieved by saturating the resultant mixes in a WiseBath® WSB shaking water bath (Model WSB-18/30/-45, Daihan Scientific Co. Ltd., Seoul, Korea) at a shaking speed of 100 rpm for 72 h. In order to evaluate the equilibrium time, the preliminary experiments were performed at different time intervals. […] The saturated solutions were again removed from the shaker after they had reached equilibrium and centrifuged for 30 min at 5000 rpm. A previously established environmentally friendly HPLC method was used to assess the ITN content after the supernatants were isolated and diluted (as required). The identification of ITN was carried out via a Nucleodur (dimensions: 150 mm × 4.6 mm and particle size: 5 μm) reversed-phase C18 analytical column at 298.2 K. The environmentally friendly mobile used was a binary mixture of ethyl acetate and ethanol (50:50% v v^−1). The mobile phase was delivered with a flow speed of 1 mL min^−1. The ITN measurements were performed at a wavelength of 354 nm. The sample volume was 20 μL, which was injected using a Waters autosampler. The Analytical GREEnness (AGREE) score was determined to evaluate the eco-friendliness nature of the HPLC method. The AGREE score was predicted to be 0.76 for the present HPLC method, indicating the eco-friendly nature of the HPLC method. ITN mole fraction solubilities (xe) were calculated using their standard formulae described in our previous work.

Q: For CC1=C(/C=C/C(C)=C/C=C/C(C)=C\C(=O)O)C(C)(C)CCC1 [ITN, isotretinoin], which solvation driven mechanism [1] is on record?
A: enthalpy-driven

Q: And the “total HSP (δt)” value [2]?
A: 19.30 MPa^1/2

Q: What about the xe experimental solubility ([3]; DMSO mass fraction m = 0.0, T = 298.2 K) of the same molecule?
A: 3.10 (0.07) × 10^−7 mole fraction

Q: And the xe experimental solubility ([3]; DMSO mass fraction m = 0.0, T = 303.2 K)?
A: 4.60 (0.15) × 10^−7 mole fraction

Q: What about the xe experimental solubility ([3]; DMSO mass fraction m = 0.0, T = 308.2 K) of the same molecule?
A: 7.50 (0.18) × 10^−7 mole fraction

Q: And the xe experimental solubility ([3]; DMSO mass fraction m = 0.0, T = 313.2 K)?
A: 1.10 (0.02) × 10^−6 mole fraction

Q: And the xe experimental solubility ([3]; DMSO mass fraction m = 0.0, T = 318.2 K)?
A: 1.50 (0.03) × 10^−6 mole fraction

Q: What about the xe experimental solubility ([3]; DMSO mass fraction m = 0.1, T = 298.2 K) of the same molecule?
A: 1.12 (0.02) × 10^−6 mole fraction

Q: What about the xe experimental solubility ([3]; DMSO mass fraction m = 0.1, T = 303.2 K) of the same molecule?
A: 1.59 (0.03) × 10^−6 mole fraction

Q: And the xe experimental solubility ([3]; DMSO mass fraction m = 0.1, T = 308.2 K)?
A: 2.45 (0.05) × 10^−6 mole fraction

Q: And the xe experimental solubility ([3]; DMSO mass fraction m = 0.1, T = 313.2 K)?
A: 3.47 (0.06) × 10^−6 mole fraction

Q: What about the xe experimental solubility ([3]; DMSO mass fraction m = 0.1, T = 318.2 K) of the same molecule?
A: 4.61 (0.11) × 10^−6 mole fraction

Q: And the xe experimental solubility ([3]; DMSO mass fraction m = 0.2, T = 298.2 K)?
A: 3.83 (0.08) × 10^−6 mole fraction

Q: What about the xe experimental solubility ([3]; DMSO mass fraction m = 0.2, T = 303.2 K) of the same molecule?
A: 5.28 (0.17) × 10^−6 mole fraction

Q: What about the xe experimental solubility ([3]; DMSO mass fraction m = 0.2, T = 308.2 K) of the same molecule?
A: 7.87 (0.21) × 10^−6 mole fraction

Q: What about the xe experimental solubility ([3]; DMSO mass fraction m = 0.2, T = 313.2 K) of the same molecule?
A: 1.10 (0.01) × 10^−5 mole fraction

Q: What about the xe experimental solubility ([3]; DMSO mass fraction m = 0.2, T = 318.2 K) of the same molecule?
A: 1.42 (0.02) × 10^−5 mole fraction

Q: What about the xe experimental solubility ([3]; DMSO mass fraction m = 0.3, T = 298.2 K) of the same molecule?
A: 1.36 (0.01) × 10^−5 mole fraction

Q: What about the xe experimental solubility ([3]; DMSO mass fraction m = 0.3, T = 303.2 K) of the same molecule?
A: 1.82 (0.03) × 10^−5 mole fraction

Q: What about the xe experimental solubility ([3]; DMSO mass fraction m = 0.3, T = 308.2 K) of the same molecule?
A: 2.57 (0.04) × 10^−5 mole fraction

Q: And the xe experimental solubility ([3]; DMSO mass fraction m = 0.3, T = 313.2 K)?
A: 3.43 (0.06) × 10^−5 mole fraction

Q: And the xe experimental solubility ([3]; DMSO mass fraction m = 0.3, T = 318.2 K)?
A: 4.29 (0.07) × 10^−5 mole fraction

Q: What about the xe experimental solubility ([3]; DMSO mass fraction m = 0.4, T = 298.2 K) of the same molecule?
A: 4.68 (0.07) × 10^−5 mole fraction

Q: And the xe experimental solubility ([3]; DMSO mass fraction m = 0.4, T = 303.2 K)?
A: 6.06 (0.08) × 10^−5 mole fraction

Q: What about the xe experimental solubility ([3]; DMSO mass fraction m = 0.4, T = 308.2 K) of the same molecule?
A: 8.23 (0.10) × 10^−5 mole fraction

Q: What about the xe experimental solubility ([3]; DMSO mass fraction m = 0.4, T = 313.2 K) of the same molecule?
A: 1.08 (0.01) × 10^−4 mole fraction

Q: And the xe experimental solubility ([3]; DMSO mass fraction m = 0.4, T = 318.2 K)?
A: 1.32 (0.02) × 10^−4 mole fraction

Q: And the xe experimental solubility ([3]; DMSO mass fraction m = 0.5, T = 298.2 K)?
A: 1.65 (0.04) × 10^−4 mole fraction

Q: What about the xe experimental solubility ([3]; DMSO mass fraction m = 0.5, T = 303.2 K) of the same molecule?
A: 2.05 (0.05) × 10^−4 mole fraction

Q: What about the xe experimental solubility ([3]; DMSO mass fraction m = 0.5, T = 308.2 K) of the same molecule?
A: 2.69 (0.06) × 10^−4 mole fraction

Q: And the xe experimental solubility ([3]; DMSO mass fraction m = 0.5, T = 313.2 K)?
A: 3.31 (0.07) × 10^−4 mole fraction

Q: And the xe experimental solubility ([3]; DMSO mass fraction m = 0.5, T = 318.2 K)?
A: 3.96 (0.08) × 10^−4 mole fraction

Q: And the xe experimental solubility ([3]; DMSO mass fraction m = 0.6, T = 298.2 K)?
A: 5.70 (0.10) × 10^−4 mole fraction

Q: What about the xe experimental solubility ([3]; DMSO mass fraction m = 0.6, T = 303.2 K) of the same molecule?
A: 6.88 (0.12) × 10^−4 mole fraction

Q: What about the xe experimental solubility ([3]; DMSO mass fraction m = 0.6, T = 308.2 K) of the same molecule?
A: 8.57 (0.17) × 10^−4 mole fraction

Q: What about the xe experimental solubility ([3]; DMSO mass fraction m = 0.6, T = 313.2 K) of the same molecule?
A: 1.08 (0.01) × 10^−3 mole fraction

Q: And the xe experimental solubility ([3]; DMSO mass fraction m = 0.6, T = 318.2 K)?
A: 1.22 (0.02) × 10^−3 mole fraction

Q: And the xe experimental solubility ([3]; DMSO mass fraction m = 0.7, T = 298.2 K)?
A: 2.02 (0.03) × 10^−3 mole fraction

Q: What about the xe experimental solubility ([3]; DMSO mass fraction m = 0.7, T = 303.2 K) of the same molecule?
A: 2.33 (0.05) × 10^−3 mole fraction

Q: What about the xe experimental solubility ([3]; DMSO mass fraction m = 0.7, T = 308.2 K) of the same molecule?
A: 2.79 (0.06) × 10^−3 mole fraction

Q: What about the xe experimental solubility ([3]; DMSO mass fraction m = 0.7, T = 313.2 K) of the same molecule?
A: 3.24 (0.07) × 10^−3 mole fraction

Q: And the xe experimental solubility ([3]; DMSO mass fraction m = 0.7, T = 318.2 K)?
A: 3.66 (0.08) × 10^−3 mole fraction

Q: What about the xe experimental solubility ([3]; DMSO mass fraction m = 0.8, T = 298.2 K) of the same molecule?
A: 6.97 (0.10) × 10^−3 mole fraction

Q: What about the xe experimental solubility ([3]; DMSO mass fraction m = 0.8, T = 303.2 K) of the same molecule?
A: 7.81 (0.12) × 10^−3 mole fraction

Q: What about the xe experimental solubility ([3]; DMSO mass fraction m = 0.8, T = 308.2 K) of the same molecule?
A: 8.96 (0.20) × 10^−3 mole fraction

Q: And the xe experimental solubility ([3]; DMSO mass fraction m = 0.8, T = 313.2 K)?
A: 1.02 (0.01) × 10^−2 mole fraction

Q: And the xe experimental solubility ([3]; DMSO mass fraction m = 0.8, T = 318.2 K)?
A: 1.15 (0.01) × 10^−2 mole fraction

Q: And the xe experimental solubility ([3]; DMSO mass fraction m = 0.9, T = 298.2 K)?
A: 2.44 (0.02) × 10^−2 mole fraction

Q: And the xe experimental solubility ([3]; DMSO mass fraction m = 0.9, T = 303.2 K)?
A: 2.66 (0.03) × 10^−2 mole fraction

Q: What about the xe experimental solubility ([3]; DMSO mass fraction m = 0.9, T = 308.2 K) of the same molecule?
A: 2.86 (0.03) × 10^−2 mole fraction

Q: What about the xe experimental solubility ([3]; DMSO mass fraction m = 0.9, T = 313.2 K) of the same molecule?
A: 3.19 (0.04) × 10^−2 mole fraction

Q: And the xe experimental solubility ([3]; DMSO mass fraction m = 0.9, T = 318.2 K)?
A: 3.39 (0.05) × 10^−2 mole fraction

Q: And the xe experimental solubility ([3]; DMSO mass fraction m = 1.0, T = 298.2 K)?
A: 8.47 (0.10) × 10^−2 mole fraction

Q: What about the xe experimental solubility ([3]; DMSO mass fraction m = 1.0, T = 303.2 K) of the same molecule?
A: 8.88 (0.11) × 10^−2 mole fraction

Q: What about the xe experimental solubility ([3]; DMSO mass fraction m = 1.0, T = 308.2 K) of the same molecule?
A: 9.31 (0.12) × 10^−2 mole fraction

Q: And the xe experimental solubility ([3]; DMSO mass fraction m = 1.0, T = 313.2 K)?
A: 9.80 (0.13) × 10^−2 mole fraction

Source: PMC10609013, “Solubility and Thermodynamic Analysis of Isotretinoin in Different (DMSO + Water) Mixtures” (Molecules, 2023)
